This is an account of results in patent US7598377B2, “Inhibition of phosphoinositide 3-kinase β” (AstraZeneca AB, priority 2002, dated 2009).

The target of one test is T1, p110δ-PI3K (Homo sapiens, UniProt O00329).
T1 construct: from tissue; host or cells: washed platelets (lysate, immunoprecipitated with anti-p110δ antibody)
Description: In vitro enzyme assay, p110δ immunoprecipitated from platelet lysate (Biological Example 1). Format: biochemical. Particulars: Table I; read-out: inhibitory concentration, delta. How it is done: (§1) For each immunoprecipitation, 1 mg of lysate was incubated with an anti-p110α (1 μg), anti-p110β (1 μg), anti-p110δ (1 μg) or anti-PI4 kinase antibody (2-5 μg) and 50 μl of a 50% slurry of protein A beads overnight at 4° C. […] For PI4 kinase assays, protein A beads-immune complexes were also washed twice with lysis buffer, prior to two washes with 1× PI4 kinase assay buffer (20 mM Hepes, pH 7.5, 10 mM MgCl2, 0.3% Triton X-100) and the addition of other assay constituents, as described above. All reactions were terminated by the addition of 100 μl 1 M HCl, 200 μl choloroform/methanol (1:1) and 500 μl 2 M KCl and lipids extracted by centrifugation at 15,000×g for 2 minutes. The production of PI3 or PI4 kinase lipid products, PtdIns(3)P and PtdIns(4)P, were confirmed through TLC analysis. The lipid spots were then removed from the TLC plate and the level of radioactivity quantified to accurately determine the level of PtdIns(3)P/PtdIns(4)P production.

The next test concerns the target T2, p110α-PI3K (Homo sapiens, UniProt P42336).
T2 construct: The α and β isoforms of the PI3K were immunoprecipitated from a platelet lysate; from tissue; host or cells: washed platelets (lysate, immunoprecipitated with anti-p110α antibody)
Description: In vitro enzyme assay, p110α immunoprecipitated from platelet lysate (Biological Example 1). Format: biochemical. The settings on record: Table I; read-out: inhibitory concentration, alpha. On the procedure:
as §1

Another test has as its target p110γ-PI3K (Homo sapiens, UniProt P48736). Description: In vitro enzyme assay, p110γ recombinant protein (Biological Example 1). Particulars: Table I; read-out: inhibitory concentration, gamma. Format: biochemical. The text has this:
Reactions were terminated and lipid products analysed as described above for the other PI 3-kinase isoforms assays.

The next test has as its target T3, p110β-PI3K (Homo sapiens, UniProt P42338).
T3 construct: The α and β isoforms of the PI3K were immunoprecipitated from a platelet lysate; from tissue; host or cells: washed platelets (lysate, immunoprecipitated with anti-p110β antibody)
Description: In vitro enzyme assay, p110β immunoprecipitated from platelet lysate (Biological Example 1). The settings on record: Table I; for IC50: read-out: inhibitory concentration, beta. Type of test: biochemical. On the procedure: as §1, with “The production of PI3 or PI4 kinase lipid products, PtdIns(3)P and PtdIns(4)P, were confirmed through TLC analysis.” left out

Test [1] relates to platelets on immobilized vWf. Description: In vitro flow studies: platelet calcium flux and adhesion on immobilized vWf. Particulars: vWf matrix, shear rate gradient up to 10,000 s^−1 over 1 s. Type of test: cell-based. On the procedure:
The use of an in vitro-flow based adhesion assay enables us to simultaneously analyze platelet adhesion dynamics and activation (by monitoring cytosolic calcium flux) on immobilized von Willebrand factor (vWf). Briefly, isolated platelets are perfused through vWf (100 μg/ml) coated microcapillary tubes and analysis of cytosolic calcium flux conducted in real-time by confocal microscopy.
Washed platelets (1.5×10^9) suspended in PWB were incubated with the calcium indicator dyes, Oregon Green 488 BAPTA-1, AM (1 μM) and Fura Red, AM (1.25 μM), for 30 min at 37° C. Platelets were washed twice with PWB prior to being resuspended in Tyrode's buffer containing 1 mM calcium.
For static adhesion assays, platelets were allowed to settle on the surface of vWf-coated coverslips for 30 min at 37° C. For flow assays, platelets were either perfused over a vWf-coated microcapillary tube at a constant shear rate of 600, 1800 or 10,000 s^−1 or allowed to settle on the surface of a vWf-coated microcapillary tube prior to being accelerated through a shear gradient of 10,000 s^−1 over a 1 s interval. Real time platelet calcium flux in individual platelets was monitored at 1 s intervals over the 30 min incubation period or at 0.586 s intervals for up to 175 s for static and flow-based assays, respectively.
(In general: A change in cytosolic calcium serves as a functional read-out for many receptors and channels.)

Sequence of p110γ-PI3K (P48736 whole entry, canonical isoform): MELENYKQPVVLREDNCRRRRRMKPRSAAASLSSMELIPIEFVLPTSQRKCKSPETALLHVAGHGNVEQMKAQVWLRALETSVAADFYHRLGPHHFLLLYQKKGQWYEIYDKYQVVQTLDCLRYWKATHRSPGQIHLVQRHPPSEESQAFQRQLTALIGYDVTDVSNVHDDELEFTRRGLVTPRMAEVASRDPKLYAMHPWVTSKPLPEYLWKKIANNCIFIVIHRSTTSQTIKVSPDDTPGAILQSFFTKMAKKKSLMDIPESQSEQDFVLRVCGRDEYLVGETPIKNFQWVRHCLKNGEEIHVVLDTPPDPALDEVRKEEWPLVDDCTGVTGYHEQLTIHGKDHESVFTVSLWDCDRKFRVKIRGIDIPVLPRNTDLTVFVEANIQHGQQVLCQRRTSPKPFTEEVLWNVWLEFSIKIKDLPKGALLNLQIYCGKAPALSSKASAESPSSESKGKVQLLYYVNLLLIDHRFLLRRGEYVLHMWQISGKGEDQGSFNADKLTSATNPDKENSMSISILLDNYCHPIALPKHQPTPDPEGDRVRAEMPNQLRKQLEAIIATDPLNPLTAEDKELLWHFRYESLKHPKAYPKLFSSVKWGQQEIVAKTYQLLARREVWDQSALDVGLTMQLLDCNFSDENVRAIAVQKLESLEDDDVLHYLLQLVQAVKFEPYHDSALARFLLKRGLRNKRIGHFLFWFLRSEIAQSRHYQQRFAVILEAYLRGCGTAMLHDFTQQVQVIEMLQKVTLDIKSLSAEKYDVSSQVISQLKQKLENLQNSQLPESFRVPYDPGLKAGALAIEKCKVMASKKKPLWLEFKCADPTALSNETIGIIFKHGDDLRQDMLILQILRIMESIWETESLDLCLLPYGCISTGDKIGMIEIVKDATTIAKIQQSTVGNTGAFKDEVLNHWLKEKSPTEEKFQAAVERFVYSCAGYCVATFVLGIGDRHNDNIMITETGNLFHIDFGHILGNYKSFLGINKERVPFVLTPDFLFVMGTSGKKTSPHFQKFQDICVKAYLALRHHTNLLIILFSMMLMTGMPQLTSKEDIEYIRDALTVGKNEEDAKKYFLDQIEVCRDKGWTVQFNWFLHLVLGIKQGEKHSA
T1 sequence (O00329 whole entry): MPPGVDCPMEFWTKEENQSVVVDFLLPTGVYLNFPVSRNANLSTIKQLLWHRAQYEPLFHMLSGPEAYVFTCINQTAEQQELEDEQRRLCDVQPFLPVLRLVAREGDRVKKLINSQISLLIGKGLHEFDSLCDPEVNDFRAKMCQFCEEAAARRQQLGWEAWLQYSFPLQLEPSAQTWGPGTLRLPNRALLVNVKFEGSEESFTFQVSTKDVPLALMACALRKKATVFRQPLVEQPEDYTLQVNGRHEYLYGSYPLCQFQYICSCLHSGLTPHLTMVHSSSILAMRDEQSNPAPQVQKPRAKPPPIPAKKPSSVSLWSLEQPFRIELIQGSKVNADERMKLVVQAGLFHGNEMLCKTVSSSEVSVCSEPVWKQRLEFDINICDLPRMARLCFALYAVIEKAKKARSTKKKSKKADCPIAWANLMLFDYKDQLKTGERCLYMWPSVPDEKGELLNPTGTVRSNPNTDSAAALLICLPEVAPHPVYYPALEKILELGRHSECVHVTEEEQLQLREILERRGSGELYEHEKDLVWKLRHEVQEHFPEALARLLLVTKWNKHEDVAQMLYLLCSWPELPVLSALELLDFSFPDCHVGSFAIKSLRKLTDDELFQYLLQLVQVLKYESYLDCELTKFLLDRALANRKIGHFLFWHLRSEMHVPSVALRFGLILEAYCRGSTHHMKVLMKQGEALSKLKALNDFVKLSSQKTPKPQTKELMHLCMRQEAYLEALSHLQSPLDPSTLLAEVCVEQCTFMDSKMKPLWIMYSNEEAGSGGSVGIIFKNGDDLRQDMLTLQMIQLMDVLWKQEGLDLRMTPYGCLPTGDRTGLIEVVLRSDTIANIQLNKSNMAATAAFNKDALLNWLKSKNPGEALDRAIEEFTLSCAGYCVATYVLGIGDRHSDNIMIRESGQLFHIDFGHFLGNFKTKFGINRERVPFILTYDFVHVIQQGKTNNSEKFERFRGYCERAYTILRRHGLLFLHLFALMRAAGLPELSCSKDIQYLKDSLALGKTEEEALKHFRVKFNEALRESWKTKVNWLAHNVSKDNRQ
T1 sequence (P27986 whole entry partner): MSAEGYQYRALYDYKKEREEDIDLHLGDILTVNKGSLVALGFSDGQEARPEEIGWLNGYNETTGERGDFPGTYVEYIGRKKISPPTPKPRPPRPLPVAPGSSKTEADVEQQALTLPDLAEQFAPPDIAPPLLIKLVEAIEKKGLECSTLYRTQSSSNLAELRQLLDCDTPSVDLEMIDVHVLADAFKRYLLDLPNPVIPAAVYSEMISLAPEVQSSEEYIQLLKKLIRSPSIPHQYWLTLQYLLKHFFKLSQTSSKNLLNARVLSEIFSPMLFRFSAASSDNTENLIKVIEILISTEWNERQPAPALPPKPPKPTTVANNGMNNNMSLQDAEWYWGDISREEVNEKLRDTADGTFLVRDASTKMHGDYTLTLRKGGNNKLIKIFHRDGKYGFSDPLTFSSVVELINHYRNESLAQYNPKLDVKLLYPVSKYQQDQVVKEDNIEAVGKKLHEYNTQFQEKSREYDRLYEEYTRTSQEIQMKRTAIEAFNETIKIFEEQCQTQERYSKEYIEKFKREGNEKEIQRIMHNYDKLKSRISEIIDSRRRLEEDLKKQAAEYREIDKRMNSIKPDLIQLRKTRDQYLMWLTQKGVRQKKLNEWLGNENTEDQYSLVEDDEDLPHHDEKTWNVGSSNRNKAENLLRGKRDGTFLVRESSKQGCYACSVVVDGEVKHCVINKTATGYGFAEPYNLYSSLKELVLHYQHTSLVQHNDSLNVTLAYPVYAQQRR
T3 sequence (P42338 whole entry, canonical isoform): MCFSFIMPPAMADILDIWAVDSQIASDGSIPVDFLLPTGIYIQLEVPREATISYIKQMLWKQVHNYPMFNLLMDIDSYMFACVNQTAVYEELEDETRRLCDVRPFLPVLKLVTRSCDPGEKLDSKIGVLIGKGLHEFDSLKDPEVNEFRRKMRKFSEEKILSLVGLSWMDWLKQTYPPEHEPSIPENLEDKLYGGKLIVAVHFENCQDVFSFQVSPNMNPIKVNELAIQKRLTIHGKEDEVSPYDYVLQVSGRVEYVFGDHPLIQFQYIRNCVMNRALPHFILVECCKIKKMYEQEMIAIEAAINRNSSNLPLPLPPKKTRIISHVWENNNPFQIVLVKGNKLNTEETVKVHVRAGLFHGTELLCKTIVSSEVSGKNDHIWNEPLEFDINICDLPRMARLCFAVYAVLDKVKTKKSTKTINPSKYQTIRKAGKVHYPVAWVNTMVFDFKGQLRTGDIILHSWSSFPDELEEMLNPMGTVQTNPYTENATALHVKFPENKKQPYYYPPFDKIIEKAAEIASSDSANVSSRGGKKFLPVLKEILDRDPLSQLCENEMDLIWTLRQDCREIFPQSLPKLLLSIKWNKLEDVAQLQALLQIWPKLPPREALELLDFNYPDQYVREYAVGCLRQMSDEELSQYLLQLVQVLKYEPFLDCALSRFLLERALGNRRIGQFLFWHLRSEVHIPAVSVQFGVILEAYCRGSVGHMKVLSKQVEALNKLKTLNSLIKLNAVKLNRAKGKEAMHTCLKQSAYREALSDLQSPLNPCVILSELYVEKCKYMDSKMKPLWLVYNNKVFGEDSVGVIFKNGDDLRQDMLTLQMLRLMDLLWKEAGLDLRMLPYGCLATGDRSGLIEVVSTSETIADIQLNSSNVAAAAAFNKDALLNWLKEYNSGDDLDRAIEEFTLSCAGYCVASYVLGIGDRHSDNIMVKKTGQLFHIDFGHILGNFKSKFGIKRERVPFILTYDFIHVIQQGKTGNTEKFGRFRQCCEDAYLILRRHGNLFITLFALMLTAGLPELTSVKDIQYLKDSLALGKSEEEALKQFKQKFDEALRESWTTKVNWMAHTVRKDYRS
T3 sequence (P27986 whole entry partner, canonical isoform): as the sequence (P27986 whole entry partner) above
T2 sequence (P42336 whole entry, canonical isoform): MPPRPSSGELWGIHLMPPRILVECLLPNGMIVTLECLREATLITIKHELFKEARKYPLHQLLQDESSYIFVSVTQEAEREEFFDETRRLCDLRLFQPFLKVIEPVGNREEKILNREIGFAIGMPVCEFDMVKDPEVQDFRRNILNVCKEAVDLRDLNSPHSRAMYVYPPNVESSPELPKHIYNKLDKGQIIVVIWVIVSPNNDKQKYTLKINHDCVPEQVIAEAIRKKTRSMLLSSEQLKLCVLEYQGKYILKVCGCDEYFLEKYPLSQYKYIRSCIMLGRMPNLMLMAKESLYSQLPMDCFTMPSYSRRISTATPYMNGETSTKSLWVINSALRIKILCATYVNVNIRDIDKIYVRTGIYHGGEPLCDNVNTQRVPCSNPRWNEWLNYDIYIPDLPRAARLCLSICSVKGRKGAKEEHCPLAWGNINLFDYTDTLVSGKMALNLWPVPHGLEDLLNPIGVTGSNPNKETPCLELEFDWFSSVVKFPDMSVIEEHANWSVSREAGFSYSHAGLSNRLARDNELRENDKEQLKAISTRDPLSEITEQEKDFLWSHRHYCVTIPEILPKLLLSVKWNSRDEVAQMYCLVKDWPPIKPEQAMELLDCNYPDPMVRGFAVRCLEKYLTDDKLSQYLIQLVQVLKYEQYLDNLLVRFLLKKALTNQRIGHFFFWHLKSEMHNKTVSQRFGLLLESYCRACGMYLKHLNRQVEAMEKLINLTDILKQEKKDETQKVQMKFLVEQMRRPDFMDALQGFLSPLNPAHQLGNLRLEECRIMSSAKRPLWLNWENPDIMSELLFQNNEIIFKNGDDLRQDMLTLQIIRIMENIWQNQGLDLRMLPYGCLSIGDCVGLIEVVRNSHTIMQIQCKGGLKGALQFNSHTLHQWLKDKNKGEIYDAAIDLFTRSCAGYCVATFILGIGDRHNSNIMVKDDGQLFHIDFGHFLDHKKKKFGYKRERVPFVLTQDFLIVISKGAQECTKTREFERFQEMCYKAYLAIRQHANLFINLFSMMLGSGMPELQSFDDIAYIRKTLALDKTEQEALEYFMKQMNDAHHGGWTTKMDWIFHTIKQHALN
T2 sequence (P27986 whole entry partner, canonical isoform): as the sequence (P27986 whole entry partner) above

With `Cc1cc(C(C)Nc2ccc(Cl)cc2)c2nc(N3CCOCC3)cc(=O)n2c1` (racemic) [TGX-243, (±)-9-[1-(4-chlorophenylamino)ethyl]-7-methyl-2-morpholin-4-yl-pyrido[1,2-a]pyrimidin-4-one], the IC50 is 2000 nM at p110δ-PI3K, > 5000 nM at p110α-PI3K, > 5000 nM at p110γ-PI3K and 50 nM at p110β-PI3K. Also, the “Ratio δ/β” value at p110β-PI3K is listed as 40.00.
On to `Cc1cc(C(C)Nc2cccc(Cl)c2)c2nc(N3CCOCC3)cc(=O)n2c1` (racemic) [TGX-248, (±)-9-[1-(3-chlorophenylamino)ethyl]-7-methyl-2-morpholin-4-yl-pyrido[1,2-a]pyrimidin-4-one], for which the IC50 on p110δ-PI3K was 100 nM; at p110α-PI3K, > 5000 nM; on p110γ-PI3K, > 5000 nM; on p110β-PI3K it was 10 nM. The “Ratio δ/β” value at p110β-PI3K is recorded as 10.00.
Consider `Cc1cc(CN(C)c2ccccc2)c2nc(N3CCOCC3)cc(=O)n2c1` (racemic) [TGX-195, (±)-7-methyl-9-{[methyl(phenyl)amino]methyl}-2-morpholin-4-yl-pyrido[1,2-a]pyrimidin-4-one], for which the IC50 at p110δ-PI3K was 500 nM; on p110α-PI3K, > 5000 nM; at p110γ-PI3K, > 5000 nM; on p110β-PI3K it was 20 nM. The “Ratio δ/β” value on p110β-PI3K is 25.00.
Turning to `Cc1cc(C(C)Nc2cccc(C(F)(F)F)c2)c2nc(N3CCOCC3)cc(=O)n2c1` (racemic) [TGX-264, (±)-7-methyl-2-morpholin-4-yl-9-[1-(3-trifluoromethylphenylamino)ethyl]-pyrido[1,2-a]pyrimidin-4-one], the IC50 at p110δ-PI3K is 10000 nM; on p110α-PI3K, > 5000 nM; at p110γ-PI3K it was > 5000 nM; on p110β-PI3K it was 75 nM. In addition, at p110β-PI3K, the “Ratio δ/β” value is recorded as 133.33.
With `Cc1cc(C(C)Nc2ccc(Cl)c(Cl)c2)c2nc(N3CCOCC3)cc(=O)n2c1` (racemic) [TGX-244, (±)-9-[1-(3,4-dichlorophenylamino)ethyl]-7-methyl-2-morpholin-4-yl-pyrido[1,2-a]pyrimidin-4-one], the IC50 at p110δ-PI3K is 1000 nM; at p110α-PI3K it was > 5000 nM; on p110γ-PI3K, > 5000 nM; on p110β-PI3K it was 50 nM. Further, the “Ratio δ/β” value at p110β-PI3K came out at 20.00.
For `Cc1cccc(NC(C)c2cc(C)cn3c(=O)cc(N4CCOCC4)nc23)c1` (racemic) [TGX-262, (±)-7-methyl-9-[1-(3-methylphenylamino)ethyl]-2-morpholin-4-yl-pyrido[1,2-a]pyrimidin-4-one], the IC50 at p110δ-PI3K was 1000 nM; on p110α-PI3K it was > 5000 nM; on p110γ-PI3K, > 5000 nM; on p110β-PI3K, 50 nM. At p110β-PI3K, the “Ratio δ/β” value is 20.00.
Consider `Cc1cc(C(C)Nc2ccccn2)c2nc(N3CCOCC3)cc(=O)n2c1` (racemic) [TGX-295, (±)-7-methyl-2-morpholin-4-yl-9-[1-(2-pyridinylamino)ethyl]-pyrido[1,2-a]pyrimidin-4-one], for which the IC50 at p110δ-PI3K was 2000 nM; on p110α-PI3K, > 5000 nM; at p110γ-PI3K, > 5000 nM; at p110β-PI3K, 50 nM. At p110β-PI3K, the “Ratio δ/β” value is listed as 40.00.
Regarding `Cc1cc(C(C)Nc2cc(F)cc(F)c2)c2nc(N3CCOCC3)cc(=O)n2c1` (racemic) [TGX-239, (±)-9-[1-(3,5-difluorophenylamino)ethyl]-7-methyl-2-morpholin-4-yl-pyrido[1,2-a]pyrimidin-4-one], the IC50 is 80 nM at p110δ-PI3K, > 5000 nM at p110α-PI3K, > 5000 nM on p110γ-PI3K and 7 nM at p110β-PI3K. The “Ratio δ/β” value at p110β-PI3K is on record as 11.43.
In the case of `COC[C@H]1OC(=O)c2coc3c2[C@@]1(C)C1=C(C3=O)[C@@H]2CCC(=O)[C@@]2(C)C[C@H]1OC(C)=O` [wortmannin, reference compound], the “platelet responses to accelerated shear” value in test [1] was “eliminates platelet responses to accelerated shear”.
